≈ marks a conversion by molar mass, not a printed value. Like-named read-outs stand apart in the source and are kept apart here.
Experiments:
S. epidermidis IID 866 = assay: In vitro antibacterial activity, MIC (standard strain); format: cell-based; conditions: S. epidermidis IID 866; 10^6 cells/ml; standard strain; listed as Exp.4
[1] = tested on: Fusobacterium varium KYA 8501; assay: as above; format: cell-based; conditions: Fusobacterium varium KYA 8501; 10^6 cells/ml; standard strain; listed as Exp.4
[2] = tested on: Escherichia coli NIHJ JC-2; assay: as above; format: cell-based; conditions: Escherichia coli NIHJ JC-2; 10^6 cells/ml; standard strain; listed as Exp.4
P. aeruginosa IFO 12689 = assay: as above; format: cell-based, Pseudomonas aeruginosa; conditions: P. aeruginosa IFO 12689; 10^6 cells/ml; standard strain
[3] = tested on: Serratia marcescens IID 618; assay: as above; format: cell-based; conditions: Serratia marcescens IID 618; 10^6 cells/ml; standard strain; listed as Exp.4
E. coli ML4707 = assay: In vivo antibacterial activity against systemic infection in mice; set-up: species or system mice (ICR-S); conditions: Escherichia coli, ML4707; mice (ICR-S); oral, an hour after intraperitoneal infection; challenge dose 2.7 x 10^6 ~ 8.8 x 10^6 cfu/mouse; read-out: ED50 E. coli ML4707
Description: (§1) Experiment-2 In vivo antibacterial activity against systemic infection in mice (ICR-S)
(§2) The infections were produced by intraperitoneal injection of a suspension of the bacterial culture corresponding to the germ studied. The products were administered orally at an hour after the infection.

S. aureus Smith = assay: as above; set-up: species or system mice (ICR-S); conditions: Staphylococcus aureus, po, mice (ICR-S), an hour after intraperitoneal infection
Description: as §1, §2

S. pneumoniae S-4288 = assay: as above; set-up: species or system mice (ICR-S); conditions: Streptococcus pneumoniae, S4288; mice (ICR-S); oral, an hour after intraperitoneal infection; challenge dose 7.5 x 10^4 ~ 4.8 x 10^6 cfu/mouse; read-out: ED50 S. pneumoniae S-4288
Description: as §1, §2

B. fragilis 25285 = assay: In vitro antibacterial activity, MIC (standard strain); format: cell-based, Bacteroides fragilis; conditions: B. fragilis 25285; 10^6 cells/ml; standard strain; listed as Exp.4
[4] = tested on: Acinetobacter anitratus IID 876; assay: as above; format: cell-based; conditions: Acinetobacter anitratus IID 876; 10^6 cells/ml; standard strain; listed as Exp.4
B. fragilis 0558 = assay: as above; format: cell-based, Bacteroides fragilis; conditions: B. fragilis 0558; 10^6 cells/ml; standard strain; listed as Exp.4
[5] = tested on: Enterobacter cloacae IID 977; assay: as above; format: cell-based; conditions: Enterobacter cloacae IID 977; 10^6 cells/ml; standard strain; listed as Exp.4
[6] = tested on: Alcaligenes faecalis 0104002; assay: as above; format: cell-based; conditions: Alcaligenes faecalis 0104002; 10^6 cells/ml; standard strain; listed as Exp.4
[7] = tested on: S. aureus IID 670 (Terajima); assay: as above; format: cell-based, Staphylococcus aureus; conditions: S. aureus IID 670 (Terajima); 10^6 cells/ml; standard strain; listed as Exp.4
M. pneumoniae Mac. = assay: In vitro antibacterial activity against Mycoplasma, MIC; format: cell-based; conditions: Mycoplasmoides pneumoniae, 120 h; M. pneumoniae Mac.; no visible growth after incubation for 5 days; read-out: MIC
Excerpt: Experiment-3 In vitro antibacterial activity against Mycoplasma

## NCC1CCN(c2c(F)cc3c(=O)c(C(=O)O)cn(C4CC4)c3c2F)C1 (stereo not shown) [Example 4, 7-(3-Aminomethyl-1-pyrrolidinyl)-1-cyclopropyl-6,8-difluoro-1,4-dihydro-4-oxo-3-quinolinecarboxylic acid]
S. epidermidis IID 866
  MIC: 0.025 µg/mL (≈ 0.0688 µM)
[1]
  MIC: 1.56 µg/mL (≈ 4.29 µM)
[2]
  MIC: 0.0125 µg/mL (≈ 0.0344 µM)
P. aeruginosa IFO 12689
  MIC: 0.39 µg/mL (≈ 1.07 µM)
[3]
  MIC: 0.10 µg/mL (≈ 0.275 µM)
E. coli ML4707
  ED50: 3 mg/kg
S. aureus Smith; challenge dose 5.5 x 10^5 cfu/mouse, n=5, read-out: ED50 against S. aureus Smith
  ED50: 1.57 mg/kg
S. aureus Smith; challenge dose 6.0 x 10^5 cfu/mouse, read-out: ED50 S. aureus Smith
  ED50: 1.8 mg/kg
S. pneumoniae S-4288
  ED50: 13.8 mg/kg
B. fragilis 25285
  MIC: 0.78 µg/mL (≈ 2.15 µM)
[4]
  MIC: 0.05 µg/mL (≈ 0.138 µM)
B. fragilis 0558
  MIC: 0.78 µg/mL (≈ 2.15 µM)
[5]
  MIC: 0.05 µg/mL (≈ 0.138 µM)
[6]
  MIC: 0.78 µg/mL (≈ 2.15 µM)
[7]
  MIC: 0.025 µg/mL (≈ 0.0688 µM)
M. pneumoniae Mac.
  MIC: 0.025 µg/mL (≈ 0.0688 µM)

— EP0183129A1, “Quinolonecarboxylic acid derivatives” (KYORIN PHARMACEUTICAL CO., LTD., priority 1984, dated 1986)
